2 compounds from patent US20090246292A1, “ANTIMICROBIAL FORMULATIONS COMPRISING A QUINONE AND A COPPER SALT” (priority 2006, published 2009) can be followed below.

Converted amounts (≈) assume the structure as drawn.

Assay [1] deals with panel of different staphylococcal strains. The following applies: compound alone; also under supplemented conditions.
Description: The activity of the salt was also determined against a panel of different staphylococcal strains, including some with known antibiotic resistance. MIC, MBC and DDA assays were carried out as described above for each of the strains, including determining the effect of the presence of salt and serum.
For DDA experiments 200 μg of the test compound was added per disc. DMSO was used as the diluting solvent. All experiments were performed in triplicate.
In assay [2] the test system is Staphylococcus haemolyticus ATCC 29970. The following applies: triplicate.
Description: The staphylococci were cultured and maintained on Mueller-Hinton Medium (agar and broth) at pH 7.2; cultures were incubated aerobically at 37° C. for 19-20 hours.
This is a standard international method for quantitatively assessing the antimicrobial activity of a compound in a liquid medium. The method used a sterile 96-well microtitre plate, capable of holding about 200 μl of liquid per well. […] The culture media were as described above.
The wells were inoculated with a liquid suspension of freshly grown micro-organism and incubated under the conditions described above. After incubation, the microtitre plate was examined visually (with the aid of a light box) for cloudiness in each well, which would indicate microbial growth. The MIC value was recorded as the lowest concentration of test compound required to inhibit microbial growth, ie, the lowest concentration for which the liquid in the well remained clear.
The subject of assay [3] is panel of different propionibacterium strains. Nature of the assay: MIC by agar dilution and (S)DDA, whole panel. Conditions: compound alone; also under supplemented conditions. In kind it is cell-based, Propionibacterium spp. On the technique in general: In agar dilution the substance is mixed into plates at graded concentrations.
Description: For (S)DDA experiments 200 μg of each test compound was added per disc. […] MIC experiments were performed in duplicate, DDA experiments as single replicates only. SDDA experiments were conducted in triplicate.
The activity of the salt (MIC by agar dilution and DDA) was also determined against a panel of different propionibacterium strains. Supplemented DDA experiments were also carried out. […] DMSO was used as the diluting solvent. MIC experiments were performed in duplicate and DDA experiments as single replicates only.
Another assay concerns P. acnes PRP-101. Nature of the assay: Disc diffusion assay (DDA), also supplemented. The class given is cell-based, Propionibacterium acnes. The following applies: Table 12 series, 200 μg per disc. Background: A growth-free zone around the sample is the usual read-out of agar diffusion tests.
For assay [4], the system named is P. acnes NCTC 737. Nature of the assay: Disc diffusion assay (DDA), also supplemented. Conditions: single compound, 200 μg per disc.
For a further assay, the system named is P. granulosum NCTC 11865. Nature of the assay: Disc diffusion assay (DDA), also supplemented. In kind it is cell-based. The following applies: Table 12 series, 200 μg per disc.
Another assay concerns P. acnes PRP-046. Nature of the assay: Disc diffusion assay (DDA), also supplemented. Conditions: Table 12 series, 200 μg per disc. The class given is cell-based, Propionibacterium acnes.
The test system of a further assay is P. granulosum PRP-055. As to the kind of experiment: Disc diffusion assay (DDA), also supplemented. The class given is cell-based. The following applies: Table 12 series, 200 μg per disc.
The subject of assay [5] is S. aureus ATCC 29213. As to the kind of experiment: Disc diffusion assay (DDA), also supplemented. The following applies: single compound, 200 μg per disc.
Another assay relates to P. acnes PRP-023. As to the kind of experiment: Disc diffusion assay (DDA), also supplemented. In kind it is cell-based, Propionibacterium acnes. The following applies: Table 12 series, 200 μg per disc.
For the next assay, the system named is P. acnes PRP-017. Nature of the assay: Disc diffusion assay (DDA), also supplemented. The following applies: Table 12 series, 200 μg per disc. The class given is cell-based, Propionibacterium acnes.
The subject of a further assay is P. acnes PRP-068. Nature of the assay: Disc diffusion assay (DDA), also supplemented. Conditions: Table 12 series, 200 μg per disc. In kind it is cell-based, Propionibacterium acnes.
Assay [6] has as its system S. aureus ATCC 29213. As to the kind of experiment: Minimum inhibitory concentration (MIC) assay. In kind it is cell-based, Staphylococcus aureus. Conditions: S. aureus ATCC 29213. An excerpt:
(§1) (a) Minimum Inhibitory Concentration (MIC) Assay
(§2) The culture media were as described above.
(§3) The assays included both negative (culture medium with no micro-organisms) and positive (culture medium plus diluting solvent plus micro-organism) controls.

Another assay concerns P. granulosum PRP-044. Nature of the assay: Disc diffusion assay (DDA), also supplemented. The class given is cell-based. Conditions: Table 12 series, 200 μg per disc.
Another assay deals with P. acnes PRP-007. As to the kind of experiment: Disc diffusion assay (DDA), also supplemented. The class given is cell-based, Propionibacterium acnes. The following applies: Table 12 series, 200 μg per disc.
In the next assay the test system is P. granulosum PRP-005. Nature of the assay: Disc diffusion assay (DDA), also supplemented. The following applies: Table 12 series, 200 μg per disc. The class given is cell-based.
In the next assay the test system is P. acnes PRP-008. Nature of the assay: Disc diffusion assay (DDA), also supplemented. The following applies: Table 12 series, 200 μg per disc. In kind it is cell-based, Propionibacterium acnes.
The next assay deals with P. acnes PRP-053. Nature of the assay: Disc diffusion assay (DDA), also supplemented. In kind it is cell-based, Propionibacterium acnes. The following applies: Table 12 series, 200 μg per disc.
Another assay concerns P. acnes PRP-003. As to the kind of experiment: Disc diffusion assay (DDA), also supplemented. In kind it is cell-based, Propionibacterium acnes. Conditions: Table 12 series, 200 μg per disc.
Another assay deals with P. acnes PRP-039. As to the kind of experiment: Disc diffusion assay (DDA), also supplemented. The class given is cell-based, Propionibacterium acnes. Conditions: Table 12 series, 200 μg per disc.
A further assay deals with P. acnes PRP-004. Nature of the assay: Disc diffusion assay (DDA), also supplemented. In kind it is cell-based, Propionibacterium acnes. Conditions: Table 12 series, 200 μg per disc.
Another assay relates to P. granulosum PRP-043. Nature of the assay: Disc diffusion assay (DDA), also supplemented. The class given is cell-based. The following applies: Table 12 series, 200 μg per disc.
The subject of another assay is P. acnes PRP-026. As to the kind of experiment: Disc diffusion assay (DDA), also supplemented. In kind it is cell-based, Propionibacterium acnes. Conditions: Table 12 series, 200 μg per disc.
Assay [7] has as its system S. aureus ATCC 29213. As to the kind of experiment: Minimum bactericidal concentration (MBC) assay. The class given is cell-based, Staphylococcus aureus. Conditions: Staphylococcus aureus, ATCC29213; S. aureus ATCC 29213; duplicate; read-out: MBC. On the procedure:
(§4) (b) Minimum Bactericidal Concentration (MBC) Assay
(§5) Following incubation they were examined visually for bacterial growth.

Assay [8] has as its system P. acnes NCTC 737. As to the kind of experiment: Minimum inhibitory concentration (MIC) assay. In kind it is cell-based, Propionibacterium acnes. Conditions: P. acnes NCTC 737.
Excerpt: as §1, §2, §3

The subject of another assay is P. granulosum PRP-019. As to the kind of experiment: Disc diffusion assay (DDA), also supplemented. The class given is cell-based. The following applies: Table 12 series, 200 μg per disc.
For assay [9], the system named is P. acnes NCTC 737. Nature of the assay: Minimum bactericidal concentration (MBC) assay. The class given is cell-based, Propionibacterium acnes. The following applies: Cutibacterium acnes, NCTC737; P. acnes NCTC 737; duplicate; read-out: MBC. On the procedure: as §4, §5
The next assay concerns P. acnes PRP-002. As to the kind of experiment: Disc diffusion assay (DDA), also supplemented. In kind it is cell-based, Propionibacterium acnes. Conditions: Table 12 series, 200 μg per disc.
The next assay concerns P. acnes PRP-102. Nature of the assay: Disc diffusion assay (DDA), also supplemented. In kind it is cell-based, Propionibacterium acnes. Conditions: Table 12 series, 200 μg per disc.
For another assay, the system named is P. acnes PRP-059. As to the kind of experiment: Disc diffusion assay (DDA), also supplemented. The class given is cell-based, Propionibacterium acnes. The following applies: Table 12 series, 200 μg per disc.
Another assay relates to P. granulosum PRP-021. Nature of the assay: Disc diffusion assay (DDA), also supplemented. The class given is cell-based. The following applies: Table 12 series, 200 μg per disc.
The subject of the next assay is P. granulosum PRP-006. As to the kind of experiment: Disc diffusion assay (DDA), also supplemented. The class given is cell-based. The following applies: Table 12 series, 200 μg per disc.
Another assay relates to P. acnes PRP-010. As to the kind of experiment: Disc diffusion assay (DDA), also supplemented. The class given is cell-based, Propionibacterium acnes. The following applies: Table 12 series, 200 μg per disc.
The mark [10] stands for this setting: zone of inhibition diameter, unsupplemented.
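For SL (S)DDA in this document: paper disc carrying compound placed on inoculated Wilkins-Chalgren Anaerobe agar pH 6.0, with lipid or NaCl supplement where listed, anaerobic 37 °C for 72 h, inhibition zone diameter read.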

Description for P. acnes PRP-002: (§6) The propionibacteria were cultured and maintained on Wilkins-Chalgren Anaerobe Medium (agar and broth) at pH 6.0; all cultures were incubated anaerobically at 37° C. for 72 hours.
(§7) A sterile paper disc was impregnated with a sample of the test compound in a suitable solvent and 30 minutes allowed for the solvents to evaporate (where possible). The disc was then placed on an agar plate onto which the test micro-organism had been inoculated. The plate was then incubated under the conditions described above, following which it was examined visually for signs of bacterial growth. […] The diameter of this zone of “inhibition” was measured using a ProtoCOL™ automated zone sizer (Synbiosis, Cambridge, UK).
(§8) For assays using Propionibacterium spp. strains the supplements used in the examples below were lipid (either Tween™ 80 or triolein, both at 1% v/v) and sodium chloride (100 mM).
Description for P. acnes PRP-003: as §6, §7, §8
Description for P. acnes PRP-004: as §6, §7, §8
Description for P. acnes PRP-007: as §6, §7, §8
Description for P. acnes PRP-008: as §6, §7, §8
Description for P. acnes PRP-010: as §6, §7, §8
Description for P. acnes PRP-023: as §6, §7, §8
Description for P. acnes PRP-026: as §6, §7, §8
Description for P. acnes PRP-053: as §6, §7, §8
Description for P. acnes PRP-059: as §6, §7, §8
Description for P. acnes PRP-068: as §6, §7, §8
Description for P. acnes PRP-101: as §6, §7, §8
Description for P. acnes PRP-102: as §6, §7, §8
Description for P. granulosum NCTC 11865: as §6, §7, §8
Description for P. granulosum PRP-005: as §6, §7, §8
Description for P. granulosum PRP-006: as §6, §7, §8
Description for P. granulosum PRP-019: as §6, §7, §8
Description for P. granulosum PRP-021: as §6, §7, §8
Description for P. granulosum PRP-043: as §6, §7, §8
Description for P. granulosum PRP-044: as §6, §7, §8
Description for P. granulosum PRP-055: as §6, §7, §8

Regarding `Oc1cccc2cccnc12.[Cu+2]` [8-hydroxyquinoline copper (II) salt], the “activity against staphylococcal strains (in words)” value in [1] was “high activity”. The “Cu-8HQ MIC” value in assay [2] was 7.8 µg/mL. Also, the “activity against propionibacterium strains tested (in words)” value in assay [3] is on record as “high activity”.

What is called MBC is the smallest concentration meeting the test's criterion for killing. For orientation: MIC means the lowest concentration that inhibits growth of the organism. For the compound `CC(C)(C)c1cc(O)ccc1O` [TBHQ, t-butylhydroquinone], the DDA in the assay with P. acnes PRP-101 is 14.01 mm; in the assay on P. granulosum NCTC 11865 it was 10.45 mm; in the assay with P. acnes PRP-046, 14.22 mm; in the assay on P. granulosum PRP-055 it was 10.04 mm; in the assay on P. acnes PRP-023, 11.92 mm; in the assay on P. acnes PRP-017, 9.93 mm. Also, the DDA was 12.55 mm in the assay on P. acnes PRP-068; 0.00 mm with P. granulosum PRP-044; 8.78 mm in the assay on P. acnes PRP-007; 15.05 mm in the assay with P. granulosum PRP-005; 13.90 mm with P. acnes PRP-008; 9.93 mm with P. acnes PRP-053. In addition, the DDA was 18.61 mm with P. acnes PRP-003; 17.04 mm with P. acnes PRP-039; 13.80 mm with P. acnes PRP-004; 10.77 mm in the assay with P. granulosum PRP-043; 11.29 mm in the assay with P. acnes PRP-026; 0.00 mm with P. granulosum PRP-019. The DDA in the assay with P. acnes PRP-002 is 10.56 mm; with P. acnes PRP-102 it was 9.10 mm; with P. acnes PRP-059, 10.87 mm; with P. granulosum PRP-021 it was 8.57 mm; in the assay on P. granulosum PRP-006, 9.93 mm; with P. acnes PRP-010, 8.68 mm. The “SL (S)DDA” value in the assay on P. acnes NCTC 737 [4] (salt and lipid (1% (v/v) Tween 80) supplements) turned out to be 0.0 mm. Also, the “(S)DDA” value is recorded as 12.20 (±1.13) mm in the assay on P. acnes NCTC 737 [4] (setting [10]) and 40.42 (±0.89) mm with S. aureus ATCC 29213 [5] (setting [10]). The “SS (S)DDA” value in the assay with S. aureus ATCC 29213 [5] (salt and serum supplements) is reported as 43.68 (±1.02) mm. Further, the MIC/MBC ratio in the assay on S. aureus ATCC 29213 [6] came out at 0.5; in the assay on P. acnes NCTC 737 [8] it was 1. Moreover, the MBC in the assay on S. aureus ATCC 29213 [7] and with P. acnes NCTC 737 [9] was 7.8 µg/mL (≈ 46.9 µM) in each case. For the same compound, in the assay on P. acnes NCTC 737 [8] (Cutibacterium acnes, NCTC737, liquid medium, duplicate, read-out: MIC), the MIC stood at 7.8 µg/mL (≈ 46.9 µM).
